According to patent publication US9394544B2, “Ameliorating oxidative stress in neurodegenerative disease via Nox1 targeting” (University of Central Florida Research Foundation, Inc., priority 2013, dated 2016):

Assays:
[1] = system: differentiated human dopaminergic cells (ReNcell VM); test: α-Synuclein and Nox1 levels in differentiated ReNcell VM human dopaminergic neurons exposed to PQ; assay type: cell-based
From the text: For the in vitro experiments on human dopaminergic neurons, human mesencephalic neuronal progenitor cell line available from Millipore (catalog number SCC008) was used. The specialty of these cells is that they are isolated from fetal human ventral mesencephalic region and subsequently immortalized by introduction of v-myc. The cells can readily differentiate into dopaminergic neurons upon withdrawal of growth factors (Millipore). The culture method was followed as indicated by the company with little modifications. Briefly, the cells were allowed to grow on laminin-coated (20 μg/ml) dishes in DMEM/F12-containing medium with B27 supplement, glutamax, heparin (10 U/ml), and gentamicin (50 μg/ml). This medium is called maintenance medium. Cell division was allowed by addition of the two growth factors in the medium viz., basic fibroblast growth factor (bFGF) and epidermal growth factor (EGF), both at a concentration of 20 ng/ml. […]
After each respective treatment, cells were fixed in 4% paraformaldehyde (PFA) for 20 min and permeabilized with 0.1% Triton X-100 in PBS for 10 min. […] For quantification of Flag^+ and α-synuclein^+ cells, >30 different fields per coverslip were analyzed on a Nikon inverted fluorescent microscope under a 20× and 40× magnification.

rat SN = test: Western blot / dot blot / protein carbonyl immunoblot of SN lysates, PQ rat model; assay type: in vivo
Procedure: The experiments were performed on rats, in accordance with the National Institutes for Health Guide for the Care and Use of Laboratory Animals. All procedures were approved by the local Animal Care and Use Committee. Male Wistar rats (8-10 weeks; Charles River) were maintained in a temperature/humidity-controlled environment under a 12 h light/dark cycle with ad libitum access to food and water. As depicted in FIG. 13A, each animal received four intraperitoneal injections, separated by 1 d, of either vehicle (saline) or PQ (10 mg/kg body weight; b.w.), according to a previously published dose (Manning-Bog et al., 2002; Harraz et al., 2008; Cristovao et al., 2009). All animals were weighed at day 1 and 12. In the studies using the paradigm depicted in FIG. 13A, 4 weeks before starting PQ intraperitoneal injection, animals were stereotaxically injected with various viral constructs at the right SN using the following coordinates: mediolateral, +2.0; anteroposterior, −5.3; dorsoventral, −6.8. Animals were organized into four groups: vector+vehicle: stereotaxically injected with adeno-associated virus (AAV) particles containing a green fluorescent protein (GFP) vector (vector) and then intraperitoneally injected with saline (vehicle) (n=10); vector+PQ: stereotaxically injected with vector and then intraperitoneally injected with PQ (n=10); shNox1+PQ: stereotaxically injected with AAV particles harboring Nox1 shRNA and then intraperitoneally injected with PQ (n=10); shNox1+vehicle: stereotaxically injected with Nox1 shRNA and then intraperitoneally injected with vehicle (n=8). AAV containing GFP vector was used as a negative control. Five days after the last PQ intraperitoneal injection, animals were killed. For Western blot analysis, brains were collected and total protein lysates from SN were prepared. For immunohistochemical analysis, animals were intracardially perfused before collecting the brains.
For Western blot, brain tissues were lysed on ice in radioimmunoprecipitation assay buffer containing 50 mMTris/HCl, pH 8.0, 150 mM NaCl, 2 mM sodium orthovanadate, 1% Nonidet-P40 (NP-40), 0.5% sodium deoxycholate, and 0.1% SDS, containing 1% of a protease inhibitor mixture (AEBSF, pepstatinA, E-64, bestatin, leupeptin, and aprotinin). The soluble fraction was obtained and equal amounts of cell lysate protein were loaded in each lane of a 12% SDS-PAGE or 4/10% to 20% polyacrylamide gel. After electrophoresis and transfer onto a polyvinylidene difluoride (PVDF) membrane, specific protein bands were detected using appropriate primary antibodies (rabbit anti-Nox1, rabbit anti-α-synuclein, mouse anti-Ubiquitin, mouse anti-tyrosine hydroxylase (TH), and mouse anti-β-actin) and secondary antibodies conjugated to alkaline phosphatase or […] peroxidase (anti-rabbit or anti-mouse) followed by Enhanced Chemifluorescence (ECF) detection or Enhanced Chemiluminescence (ECL).
For dot blot, brain tissues were homogenized in a buffer containing 0.32 M sucrose, 1 mM NaHCO3, 1 mM MgCl2, 0.5 mM CaCl2, and 1% of a protease inhibitor mixture (AEBSF, pepstatinA, E-64, bestatin, leupeptin, and aprotinin). The soluble fraction was obtained by centrifugation at 1000×g and 5 μl of each sample, containing the same amount of protein, was spotted in a PVDF membrane. Membrane was air dried for 4 h and blocked overnight at 4° C. in 5% nonfat dry milk TBST (10 mM Tris-HCl, pH 7.8, 100 mM NaCl, 0.05% Tween 20) solution. Protein spots were detected using the primary antibody, rabbit anti-A11 oligomer (0.5 μg/ml) from Invitrogen, and secondary antibody conjugated to […] peroxidase (anti-rabbit) followed by ECL detection.
The levels of protein carbonyl were measured in protein extracts from the SN tissues, using the OxiSelect Protein Carbonyl Immunoblot Kit (Cell Biolabs), according to the manufacturer's instructions, with small modifications. […]

## C[n+]1ccc(-c2cc[n+](C)cc2)cc1 [PQ, paraquat]
[1]; 8 h PQ
  Nox1 level (immunocytochemistry, Western blot): highly elevated
[1]; PQ 800 or 1000 μM, 8 and 24 h
  α-synuclein level: increases over time
Rat SN; ipsilateral SN
  increase in protein carbonyl levels after PQ exposure: 95%
  increase in ubiquitin protein levels, vector+PQ vs vector+vehicle: 43%
Rat SN; ipsilateral SN, Western blot
  increase in α-synuclein protein levels, vector+PQ vs vector+vehicle: 54%
Rat SN; ipsilateral SN, dot blot
  increase in A11-positive oligomers, vector+PQ vs vector+vehicle: 68%
Rat SN; ipsilateral SN, vector+PQ group, or Nox1 knocked down before PQ
  TH protein levels compared with vector+vehicle: 65%
Rat SN; rats, PQ 10 mg/kg i.p. x4
  Nox1 protein level in the SN, higher than vehicle group: 58%
Rat SN; rats, PQ 10 mg/kg i.p. x4, vs vehicle
  increase in α-synuclein protein levels in the SN (Western blot): 50%
Rat SN; vector+PQ group, ipsilateral SN
  Nox1 protein, higher than vector+vehicle: 70%
